# Data as given in US8017725B2, “Use of heparin-binding domain of fibronectin for diagnosis and treatment of cancer” (Novartis Forschungesstiftung Zweigniederlassung Friedrich …, priority 2001, dated 2011).
# Experiments:
# [1] = test system: T98G glioblastoma cells; test: Adhesion assay (attachment and spreading on coated ECM substrata); assay type: cell-based, human
# Method: (§1) 60-well microtiter plates (Nunc) were coated with 10 μg/ml ECM molecules giving rise to 1 μg/cm^2 (fibronectin and tenascin-C) and 4 μg/cm^2 (FNIII13) for 1 h at 37° C. ECM proteins were coated separately, starting with fibronectin, followed by tenascin-C, FNIII13 and BSA. The non-coated plastic surface was blocked with 1% heat-inactivated BSA in PBS giving rise to 10 μg/cm^2 protein. Similarly, mixed substrata of collagen I and laminin 1, respectively with tenascin-C were prepared and tenascin-C was detected by ELISA.
# (§2) Efficient fibronectin and tenascin-C coating was determined by ELISA with an anti-fibronectin and anti-tenascin-C antibody (Fischer, D. et al (1995) J Biol Chem 270: 3378-3384), respectively and by PAGE analysis of lysed surface-bound ECM material combined with Coomassie Brilliant Blue staining. Before plating, cells were serum starved for 18 h in DMEM containing 1×ITS (insulin, transferrin, selene) supplement, trypsinised, trypsin was blocked with 100 μg/ml soybean trypsin inhibitor in PBS and, cells were resuspended in serum-free medium and counted. 200-500 cells per well were plated for the indicated time points, fixed by addition of glutaraldehyde (2% final concentration) for 15 minutes and stained with 0.1% crystalviolet in 20% methanol for 30 minutes. Cells were observed under a Nikon microscope (Nikon diaphot) and pictures were taken with a Nikon camera.
# [2] = test system: CHO-B2α27 cells; test: DNA replication assay (3H-thymidine incorporation); assay type: cell-based, Chinese hamster; details: CHO-B2α27, ITS
# Method: (§3) 96-well plates (Falcon) were coated as described above. Cells were serum starved overnight and trypsinised as described. 10^4 cells were transferred onto the coated plates in the presence of the indicated mitogens. 14 h later cells were labelled with radioactive ^3H-thymidine (0.5 μCi/well) for 4 h at 37° C., incorporated ^3H-thymidine was precipitated with 10% TCA and determined with a Beckman scintillation counter after cell lysis in 0.3N NaOH, 2% SDS. For long-term cell proliferation assays 2×10^3 MDA-MB435 cells were plated into ECM-coated 96-well plates in the presence of 10 ng/ml insulin and incubated for the indicated time points in a humidified chamber at 37° C. in a CO^2-incubator. 50% fresh medium with growth factor was added every 24 h. At different time points cells were trypsinised and counted.
# (§4) DNA replication was determined by ^3H-thymidine incorporation and is described as relative increase in cpm over cells plated on fibronectin. Serum starved cells were triggered to enter S-phase by 40 ng/ml PDGF-BB (a), 100 ng/ml insulin (b) and ITS (c).
# [3] = test system: CHO-K1 cells; test: DNA replication assay (3H-thymidine incorporation); assay type: cell-based, Chinese hamster; details: CHO-K1, ITS
# Method: as §3, §4
# [4] = test system: CHO-B2 cells; test: DNA replication assay (3H-thymidine incorporation); assay type: cell-based, Chinese hamster; details: CHO-B2, ITS
# Method: as §3, §4
# [5] = test system: CHO-B2α27 cells; test: Adhesion assay (attachment on coated ECM substrata); assay type: cell-based, Chinese hamster; details: CHO-B2α27, 20 h adhesion, ITS
# Method: as §1, §2
# (§5) The inventors tested whether expression of integrins capable of binding to fibronectin influences tenascin-C-induced compromised attachment on fibronectin. CHO-K1 cells (which express moderate levels of α5β1 (Bauer, J. S. et al (1992) J Cell Biol 116: 477-487)) were compared for levels of adhesion on fibronectin and other ECM substrates with that of cells that either express essentially no fibronectin binding integrins (CHO-B2), or overexpress α5β1 (CHO-B2α27) and αvβ1 (CHO-B2v7), respectively (Schreiner, C. et al (1991) Cancer Res 51: 1738-1740).
# [6] = test system: CHO-K1 cells; test: as above; assay type: cell-based, Chinese hamster; details: CHO-K1, 20 h adhesion, ITS
# Method: as §1, §2, §5
# [7] = test system: CHO-B2 cells; test: as above; assay type: cell-based, Chinese hamster; details: CHO-B2, 20 h adhesion, ITS
# Method: as §1, §2, §5
# [8] = test system: MDA-MB435 breast carcinoma cells; test: as above; assay type: cell-based, human
# Method: as §1, §2
# [9] = test system: tumour cell lines; test: Adhesion assay on tumour cell lines; assay type: cell-based
# Method: as §1
# as §2, with “camera. […]” for “camera.”
# [10] = test system: T98G glioblastoma cells; test: DNA replication assay (3H-thymidine incorporation); assay type: cell-based, human; details: 40 ng/ml PDGF-BB
# Method: as §3
# (§6) Cell proliferation and DNA synthesis of MDA-MB435 breast carcinoma, T98G glioblastoma, and Chinese hamster ovary […] cells (CHO) grown on fibronectin, tenascin-C and on mixed fibronectin/tenascin-C substrata was determined. […] After 27 h, 51 h, and 75 h cells were counted. 24% and 33% more cells were counted on fibronectin/tenascin-C than on fibronectin after 51 h and 75 h of culturing, respectively. […]
# (§7) DNA replication was determined by ^3H-thymidine incorporation and is described as relative increase in cpm over cells plated on fibronectin. […]
# [11] = test system: MDA-MB435 breast carcinoma cells; test: DNA replication assay (3H-thymidine incorporation); assay type: cell-based, human; details: MDA MB 435, 100 ng/ml insulin
# Method: as §3, §6, §7
# [12] = test system: all cell lines tested; test: DNA replication assay, all cell lines tested; assay type: cell-based
# Method: as §3
# In order to address whether tenascin-C alone and in ECM contexts other than fibronectin might also enhance proliferation, an investigation was carried out into DNA synthesis on a pure tenascin-C substratum where cells remained rounded and, on mixed substrata of collagen I and laminin 1 that contained tenascin-C where cells spread normally. […] To rule out that tenascin-C may shorten S-phase of the cell cycle in tumour cells, DNA synthesis of T98G cells was determined by assay every two hours starting 11 h after plating. […]
substance,measurement,setting,value
"TN: Full length chicken tenascin-C TN260, recombinant, expressed in HEK-293 cells, used as coated substratum",numbers of attached cells,"[1]; 1 h attachment, serum free medium",9.3 +/− 0.9 % of cells attached on fibronectin
same,numbers of attached cells,"[1]; 20 h adhesion, 40 ng/ml PDGF-BB",14.6 +/− 0.4 % of cells attached on fibronectin
same,DNA replication by 3H-thymidine incorporation,[2],11 +/− 3.9 relative increase in cpm over cells plated on fibronectin
same,DNA replication by 3H-thymidine incorporation,[3],5.9 +/− 1.7 relative increase in cpm over cells plated on fibronectin
same,DNA replication by 3H-thymidine incorporation,[4],7.1 +/− 0.2 relative increase in cpm over cells plated on fibronectin
same,numbers of attached cells,[5],4.3 +/− 0.7 % of cells attached on fibronectin
same,numbers of attached cells,[6],4.7 +/− 0.2 % of cells attached on fibronectin
same,numbers of attached cells,[7],8.0 +/− 2.9 % of cells attached on fibronectin
same,numbers of attached cells,"[8]; MDA MB 435, 1 h attachment, serum free medium",8.2 +/− 3.9 % of cells attached on fibronectin
same,numbers of attached cells,"[8]; MDA MB 435, 20 h adhesion, 100 ng/ml insulin",4.0 +/− 0.2 % of cells attached on fibronectin
same,cells attached on tenascin-C,"[9]; 1 h after plating, all cell lines tested",less than 10%
same,blocking of cell attachment on fibronectin,[9]; molar ratio of tenascin-C to fibronectin of 1:8,blocked cell attachment on fibronectin as efficiently as in an equimolar ratio
same,DNA replication by 3H-thymidine incorporation,[10],3.0 +/− 0.9 relative increase in cpm over cells plated on fibronectin
same,DNA replication by 3H-thymidine incorporation,[11],2.7 +/− 0.6 relative increase in cpm over cells plated on fibronectin
same,DNA replication indices increase on pure tenascin-C,[12],≤ 11 fold
